Key:
[1] = tested on: Pancreatic Ductal Adenocarcinoma #03; assay: Evaluation against early stage pancreatic ductal adenocarcinoma #03 in BDF mice; assay type: in vivo
Excerpt: Male BDF mice (12 weeks old, weight approximately 28.9 g) were implanted with the pancreatic ductal cell carcinoma #03 3 days before beginning treatment with (HO)2DEHSPM.

[2] = Non-tumor-bearing toxicity controls, same regimens; assay type: in vivo
[3] = tested on: pancreatic native polyamine pools; assay: Tissue drug and native polyamine levels (pancreas, liver) in treated dogs; assay type: in vivo, beagles
Excerpt: The two dogs (#490 and 494) were fed a prescription canned and dry dog food and were supplemented with Viokase, a pancreatic enzyme preparation, by mixing three tablets with food or by oral administration immediately before each feeding. The dogs were maintained on this regimen for approximately three weeks. During this time, their weight and blood chemistries were closely monitored. The Viokase supplementation was then stopped and the same parameters were again evaluated. One week after the Viokase administration had ceased, the animals were euthanized and tissues were taken for histology and for the determination of tissue polyamine levels.
As the pancreatic insufficiency side-effect that was observed after the administration of the (R,R)—(HO)2DEHSPM to the beagles may have been related to the (R,R)-chirality of the molecule, the (S,S)-enantiomer was synthesized and was compared in a head-to-head fashion with the (R,R)-enantiomer. To perform this experiment, five male beagles approximately 6-8 months of age were obtained from Harlan Sprague Dawley. There were provided with food and water ad libitum and were allowed to acclimate to their new surroundings for two weeks. The animals were weighed prior to starting drug administration and were weighed once per week during the drug dosing period. A CBC and chemistry panel and a Holter monitor were performed once per week. In addition to the usual tests, additional pancreatic function-specific tests were also performed. These additional evaluations included a fecal trypsin test, examination of the feces for fecal fat and serum trypsin-like immunoreactivity determinations. It was hoped that these signs of pancreatic insufficiency would only appear in the animals given the (R,R)-enantiomer and would not be observed in the dogs that were given the (S,S)-molecule. The pancreatic insufficiency may not become evident until approximately 7-8 weeks post-drug. At the conclusion of the experiment, all of the animals were sacrificed and the histology and tissue polyamine levels were determined.
• 1. Dogs #468 and 500 were given (R,R)—(HO)2DEHSPM subcutaneously twice daily for 13 days. • 2. They were fed Purina Dog Chow ad libitum and given free access to water. • 3. Polyamine levels in the pancreas were also analyzed at several time points post-drug. • 4. At the start of the experiment, dog #468 weighed 14.4 kg and dog #500 weighed 12.8 kg. The latter animal's weight never exceeded 13.2 kg. At the end of the drug dosing period, dog #468 weighed 13.0 kg, a loss of 1.4 kg; dog #500 weighed 13.2 kg, a gain of 0.4 kg. • 5. […] The pancreatic native polyamine pools (most especially SPD) were markedly diminished compared to untreated control tissue: [SPM]control=3,985 μm v. [SPM10-days post-treatment=2,548 μm (64% of control) [SPD]control=2,820 μm v [SPD]10-days post-treatment=721 μm (25.6% of control) • 6. Dog #468 was bright, alert and responsive until day thirteen of drug administration. […] The dog was fed boiled chicken and rice, as well as Nutrical (a caloric supplement) and cat food and was slowly weaned back to regular dog food. Frank and/or occult blood was found in the dog's stool until about 17-days post-drug. • 7. Dog #500 was bright, alert and responsive throughout the experiment. […] However, stool consistency had normalized by one week post-drug. • 8. […] The inability to digest fats was confirmed when this test was repeated and the fatty meal was supplemented with Viokase (a pancreatic enzyme supplement). […] (2.15 mg/kg every 12 hours) for 13 days • Route: subcutaneously • 1. Dogs #440 and 476 were given (S,S)— (HO)2DEHSPM subcutaneously twice daily for 13 days. • […]. They were fed Purina Dog Chow ad libitum and given free access to water. • 3. At the start of the experiment, dog #440 weighed 11.8 kg.
Two animals were also treated with DEHSPM at a dose equimolar to the (HO)2DEHSPM dosage and sacrificed at 1- and 75-days after the final treatment. […]

pancreas = assay: Pancreas anatomy and function in DEHSPM-treated animals; assay type: in vivo; settings: equimolar dose
Procedure: Two animals were also treated with DEHSPM at a dose equimolar to the (HO)2DEHSPM dosage and sacrificed at 1- and 75-days after the final treatment. […] At 1-day post-treatment, the total amount of drug: (parent+metabolites)1-day post-treatment=951 μm. […] At 75-days post-treatment, a substantial amount of DEHSPM remains in the pancreas: (parent+metabolites)75-days post-treatment=595 μm.
The nearly normal polyamine pools are mirrored by the anatomy.

[4] = group 2, tumor-bearing, IV QD 3, 4, 6-9, 14, 17, 18, total dosage 240 mg/kg
[5] = group 2, tumor-bearing, total dosage 240 mg/kg IV
[6] = group 4, tumor-bearing, IV QD 3-18, total dosage 205 mg/kg
[7] = group 4, tumor-bearing, total dosage 205 mg/kg IV
[8] = group 6, tumor-bearing, total dosage 102.5 mg/kg IV
[9] = group 3, NTB, IV QD 3, 4, 6-9, 14, 17, 18, total dosage 240 mg/kg
[10] = group 3, NTB, total dosage 240 mg/kg IV
[11] = group 5, NTB, IV QD 3-18, total dosage 205 mg/kg
[12] = group 5, NTB, total dosage 205 mg/kg IV
[13] = group 7, NTB, IV QD 3-18, total dosage 102.5 mg/kg
[14] = group 7, NTB, total dosage 102.5 mg/kg IV
[15] = 1-day post-treatment, equimolar dose
[16] = 75-days post-treatment, equimolar dose

CCNCCCCNCCCCNCCCCNCC [DEHSPM, reference compound]
Mean Body Wt. Loss [1, 4]: −11.2 g/mouse
Percent Body Wt. Loss [1, 4]: −38.0%
Day of Wt. Loss Nadir [1, 5]: 35 days
Drug Deaths (days of death) [1, 5]: 0/5
Mean Body Wt. Loss [1, 6]: −8.6 g/mouse
Percent Body Wt. Loss [1, 6]: −29.0%
Day of Wt. Loss Nadir [1, 7]: 35 days
Drug Deaths (days of death) [1, 7]: 0/5
Mean Body Wt. Loss ([1]; group 6, tumor-bearing, IV QD 3-18, total dosage 102.5 mg/kg): −0.4 g/mouse
Day of Wt. Loss Nadir [1, 8]: 7 days
Drug Deaths (days of death) [1, 8]: 0/5
Mean Body Wt. Loss [2, 9]: −8.5 g/mouse
Percent Body Wt. Loss [2, 9]: −30.0%
Day of Wt. Loss Nadir [2, 10]: 35 days
Drug Deaths (days of death) [2, 10]: 0/2
Mean Body Wt. Loss [2, 11]: −7.5 g/mouse
Percent Body Wt. Loss [2, 11]: −26.0%
Day of Wt. Loss Nadir [2, 12]: 35 days
Drug Deaths (days of death) [2, 12]: 0/2
Mean Body Wt. Loss [2, 13]: −1.0 g/mouse
Percent Body Wt. Loss [2, 13]: −3.0%
Day of Wt. Loss Nadir [2, 14]: 23 days
Drug Deaths (days of death) [2, 14]: 0/2
total amount of drug (parent+metabolites) in pancreas ([3]; 1-day post-treatment, dose equimolar to the (HO)2DEHSPM dosage): 951 μm
[SPD] in pancreas [3, 15]: 863 μm
[SPD] in pancreas, % of control [3, 15]: 30.6 % of control
[SPM] in pancreas [3, 15]: 2,770 μm
[SPM] in pancreas, % of control [3, 15]: 69.5 % of control
PUT in pancreas [3, 16]: 60 μm
[SPD] in pancreas [3, 16]: 1,572 μm
[SPD] in pancreas, % of control [3, 16]: 55.7 % of control
[SPM] in pancreas [3, 16]: 3,162 μm
[SPM] in pancreas, % of control [3, 16]: 79.3 % of control
drug (parent+metabolites) in pancreas [3, 16]: 595 μm
pancreas anatomy (pancreas; 75-days post-treatment): essentially normal macroscopically and microscopically
exocrine and endocrine pancreatic functions (pancreas): appeared normal

Source: US20080108706A1, “Chemical resection of pancreas” (priority 1999, published 2008)
